Read-outs that look alike come from different tables or passages of the source.
Columns and labels:
human Itk kinase = biological target: T1, human Itk kinase (Homo sapiens, UniProt Q08881); assay: Itk inhibition assay: radioactivity-based assay; type: biochemical; conditions: Ki(app)
T1 sequence (Q08881 1-620): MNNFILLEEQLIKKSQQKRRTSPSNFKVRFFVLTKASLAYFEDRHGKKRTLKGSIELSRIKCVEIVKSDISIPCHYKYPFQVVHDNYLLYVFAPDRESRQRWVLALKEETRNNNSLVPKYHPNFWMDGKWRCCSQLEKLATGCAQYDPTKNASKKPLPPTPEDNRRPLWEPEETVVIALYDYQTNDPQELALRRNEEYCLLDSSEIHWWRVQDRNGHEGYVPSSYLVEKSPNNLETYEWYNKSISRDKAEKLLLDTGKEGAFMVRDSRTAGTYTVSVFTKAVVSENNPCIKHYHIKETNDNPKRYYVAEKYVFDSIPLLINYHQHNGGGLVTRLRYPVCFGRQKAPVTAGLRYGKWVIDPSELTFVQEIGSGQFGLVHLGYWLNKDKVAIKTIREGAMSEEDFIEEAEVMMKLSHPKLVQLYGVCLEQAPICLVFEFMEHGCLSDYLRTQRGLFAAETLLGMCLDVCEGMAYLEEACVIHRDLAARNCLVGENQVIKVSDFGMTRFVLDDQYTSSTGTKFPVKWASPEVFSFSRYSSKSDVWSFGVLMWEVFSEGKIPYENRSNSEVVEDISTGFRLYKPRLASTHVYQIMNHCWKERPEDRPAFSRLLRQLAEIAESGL
Protocol: The compounds of the present invention were evaluated as inhibitors of human Itk kinase using a radioactivity-based assay. These compounds can also be evaluated using a spectrophotometric or alphascreen assay.
Assays were carried out in a mixture of 20 mM MOPS (pH 7.0), 10 mM MgCl2, 0.1% BSA and 1 mM DTT. Final substrate concentrations in the assay were 7.5 μM [γ-^33P]ATP (400 μCi ^33P ATP/μmol ATP, Amersham Pharmacia Biotech/Sigma Chemicals) and 3 μM peptide (SAM68 protein Δ332-443). Assays were carried out at 25° C. in the presence of 50 nM Itk. An assay stock buffer solution was prepared containing all of the reagents listed above, with the exception of ATP and the test compound of interest. 50 μL of the stock solution was placed in a 96 well plate followed by addition of 2 μL of DMSO stock containing serial dilutions of the test compound (typically starting from a final concentration of 50 μM with 2-fold serial dilutions) in duplicate (final DMSO concentration 2%). The plate was pre-incubated for 10 minutes at 25° C. and the reaction initiated by addition of 50 μL [γ-^33P]ATP (final concentration 7.5 μM).
The reaction was stopped after 10 minutes by the addition of 100 μL 0.2M phosphoric acid+0.01% TWEEN 20. A multiscreen phosphocellulose filter 96-well plate (Millipore, Cat no. MAPHNOB50) was pretreated with 100 μL 0.2M phosphoric acid+0.01% TWEEN 20 prior to the addition of 170 μL of the stopped assay mixture. The plate was washed with 4×200 μL 0.2M phosphoric acid+0.01% TWEEN 20. After drying, 30 μL Optiphase ‘SuperMix’ liquid scintillation cocktail (Perkin Elmer) was added to the well prior to scintillation counting (1450 Microbeta Liquid Scintillation Counter, Wallac).
Ki(app) data were calculated from non-linear regression analysis of the initial rate data using the Prism software package (GraphPad Prism version 3.0cx for Macintosh, GraphPad Software, San Diego Calif., USA).

JAK3 = biological target: T2, JAK3 (Homo sapiens, UniProt P52333); assay: biochemical
T2 sequence (P52333 1-1124): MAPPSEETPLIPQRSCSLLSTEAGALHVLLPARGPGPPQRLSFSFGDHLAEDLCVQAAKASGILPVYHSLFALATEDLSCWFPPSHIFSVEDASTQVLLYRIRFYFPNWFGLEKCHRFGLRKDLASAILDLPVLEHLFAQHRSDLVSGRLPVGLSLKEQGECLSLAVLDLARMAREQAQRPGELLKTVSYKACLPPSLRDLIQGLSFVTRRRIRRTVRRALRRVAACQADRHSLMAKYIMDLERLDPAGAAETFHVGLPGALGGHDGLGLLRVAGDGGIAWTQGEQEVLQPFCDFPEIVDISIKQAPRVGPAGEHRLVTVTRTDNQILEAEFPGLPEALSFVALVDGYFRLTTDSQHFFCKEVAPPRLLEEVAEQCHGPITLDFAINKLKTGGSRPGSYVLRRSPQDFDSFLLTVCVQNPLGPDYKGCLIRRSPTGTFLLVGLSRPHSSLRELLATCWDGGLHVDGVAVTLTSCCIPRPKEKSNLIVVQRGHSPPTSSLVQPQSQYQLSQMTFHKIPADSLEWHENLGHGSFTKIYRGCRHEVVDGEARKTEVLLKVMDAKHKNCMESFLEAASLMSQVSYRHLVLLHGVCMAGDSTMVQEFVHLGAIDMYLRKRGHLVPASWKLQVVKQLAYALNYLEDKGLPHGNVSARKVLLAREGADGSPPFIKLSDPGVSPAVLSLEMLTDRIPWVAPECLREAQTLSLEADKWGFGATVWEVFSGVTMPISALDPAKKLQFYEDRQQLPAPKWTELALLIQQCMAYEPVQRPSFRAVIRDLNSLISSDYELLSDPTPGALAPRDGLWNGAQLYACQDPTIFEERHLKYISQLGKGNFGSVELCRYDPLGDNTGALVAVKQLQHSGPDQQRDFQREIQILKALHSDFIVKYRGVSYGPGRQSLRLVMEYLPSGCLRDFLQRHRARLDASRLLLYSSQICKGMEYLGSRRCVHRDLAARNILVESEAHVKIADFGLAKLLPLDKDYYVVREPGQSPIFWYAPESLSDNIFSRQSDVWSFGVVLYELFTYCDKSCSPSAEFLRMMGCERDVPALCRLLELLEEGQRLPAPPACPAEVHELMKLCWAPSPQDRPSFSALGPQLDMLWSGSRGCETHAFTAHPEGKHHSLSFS

Colo205 cells = assay: Analysis of cell proliferation and viability; type: cell-based; conditions: Homo sapiens, read-out: IC50 value
Aurora-1 (Aurora B) = Aurora-1 (Aurora B) (Homo sapiens, UniProt Q96GD4); assay: Aurora-1 (Aurora B) inhibition assay (radiometric); type: biochemical; conditions: read-out: Aurora B kinase Ki value
Chain of Aurora-1 (Aurora B) (Q96GD4 whole entry): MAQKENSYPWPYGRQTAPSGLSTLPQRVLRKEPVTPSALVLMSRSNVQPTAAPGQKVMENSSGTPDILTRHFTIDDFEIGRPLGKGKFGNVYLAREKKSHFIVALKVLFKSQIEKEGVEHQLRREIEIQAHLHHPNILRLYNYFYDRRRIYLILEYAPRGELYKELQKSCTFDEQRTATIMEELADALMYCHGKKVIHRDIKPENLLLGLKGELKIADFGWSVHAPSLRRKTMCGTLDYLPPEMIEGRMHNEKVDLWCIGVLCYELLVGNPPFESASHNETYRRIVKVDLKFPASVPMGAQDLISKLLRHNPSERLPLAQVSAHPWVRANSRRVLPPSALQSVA
Outline: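 Radiometric ^33P incorporation into peptide substrate, with [γ-^33P]-ATP at 800 μM final, in 25 mM HEPES pH 7.5, 10 mM MgCl2, 0.1% BSA, 10% glycerol. Compound preincubated with enzyme for 10 min at 25° C, reaction run 3 h, then captured on phosphocellulose. Ki from initial rates by non-linear regression after background subtraction.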

Aurora-2 (Aurora A) = biological target: T3, Aurora-2 (Aurora A) (Homo sapiens, UniProt O14965); assay: Aurora-2 (Aurora A) inhibition assay, coupled enzyme; type: biochemical; conditions: read-out: Aurora A kinase Ki value
T3 sequence (O14965 1-403): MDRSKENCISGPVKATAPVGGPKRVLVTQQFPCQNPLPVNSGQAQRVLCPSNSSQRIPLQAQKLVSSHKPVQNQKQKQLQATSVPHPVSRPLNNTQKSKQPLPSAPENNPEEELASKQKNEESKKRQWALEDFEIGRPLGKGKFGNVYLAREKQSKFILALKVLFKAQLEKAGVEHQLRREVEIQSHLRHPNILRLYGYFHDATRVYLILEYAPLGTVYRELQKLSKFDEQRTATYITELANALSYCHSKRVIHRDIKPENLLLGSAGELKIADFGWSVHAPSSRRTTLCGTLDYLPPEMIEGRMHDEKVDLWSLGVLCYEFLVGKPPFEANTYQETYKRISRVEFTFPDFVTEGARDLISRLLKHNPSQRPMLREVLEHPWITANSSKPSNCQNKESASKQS
Outline: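 Coupled pyruvate kinase/lactate dehydrogenase assay with NADH in pH 7.5 Hepes containing MgCl2, DTT and NaCl, using 40 nM Aurora-2 at 30 °C. After a 10 min preincubation, enzyme addition started the reaction, and initial rates were taken over 10 min. IC50 and Ki came from non-linear regression.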

[1] = COLO 205, Colo205 cells, incubated for 96 hours

| SMILES | Ki (human Itk kinase) | IC50 (Colo205 cells; [1]) | IC50 (Colo205 cells; COLO 205, 96 h) | also measured |
| --- | --- | --- | --- | --- |
| O=C(Nc1ccc(Sc2nc(Nc3cc(C4CC4)[nH]n3)cc(N3CCC3)n2)cc1)c1ccccc1Cl [Compound 65] | ≤ 100 nM | 50 to 1000 nM |  | Ki (JAK3; read-out: JAK3 Ki value): ≤ 10 nM |
| Cc1cc(Nc2cc(N3CCC3)nc(Sc3ccc(NC(=O)c4ccccc4F)cc3)n2)n[nH]1 [Compound 9] | 100 to 1000 nM | 50 to 1000 nM |  | Ki (Aurora-1 (Aurora B)): ≤ 10 nM |
| Cc1cc(Nc2cc(N3CCC3)nc(Sc3ccc(NC(=O)c4ccccc4OC(F)(F)F)cc3)n2)n[nH]1 [Compound 34] | 100 to 1000 nM |  | 50 to 1000 nM |  |
| O=C(Nc1ccc(Sc2nc(Nc3cc(CO)[nH]n3)cc(N3CCC3)n2)cc1)c1ccccc1Cl [Compound 75] | 1000 to 2000 nM |  |  | Ki (Aurora-2 (Aurora A)): 5 to 200 nM; Ki (Aurora-1 (Aurora B)): 50 to 2000 nM |
| Cc1cc(Nc2cc(N3CCC3)nc(Sc3ccc(NC(=O)c4c(F)cccc4F)cc3)n2)n[nH]1 [Compound 7] | ≤ 100 nM | ≤ 50 nM |  |  |
| Cc1cc(Nc2cc(N3CCC3)nc(Sc3ccc(NC(=O)c4cccc(C)c4Cl)cc3)n2)n[nH]1 [Compound 161] | 100 to 1000 nM | 50 to 1000 nM |  | Ki (JAK3; read-out: JAK3 Ki value): ≤ 10 nM |
| CCc1cccc(C(=O)Nc2ccc(Sc3nc(Nc4cc(C)[nH]n4)cc(N4CCC4)n3)cc2)c1Cl [Compound 164] | 100 to 1000 nM | ≤ 50 nM |  | Ki (JAK3): ≤ 10 nM |
| Cc1cc(Nc2cc(N3CCC3)nc(Sc3ccc(NC(=O)c4cccc(F)c4F)cc3)n2)n[nH]1 [Compound 33] | 100 to 1000 nM |  | 50 to 1000 nM | Ki (Aurora-2 (Aurora A)): 1 to 5 nM |
| Cc1cc(Nc2cc(N3CCC3)nc(Sc3ccc(NC(=O)c4ccccc4C(F)(F)F)cc3)n2)[nH]n1 [Compound 56] | 100 to 1000 nM | ≤ 50 nM |  | IC50 (Colo205 cells; COLO 205, Colo205 cells, incubated for 72 hours): 30 to 200 nM |
| Cc1cccc(C(=O)Nc2ccc(Sc3nc(Nc4cc(C)[nH]n4)cc(N4CCC4)n3)cc2)c1 [Compound 29] | 100 to 1000 nM |  | 50 to 1000 nM |  |
| Cc1cc(Nc2cc(N3CCC3)nc(Sc3ccc(NC(=O)c4cc(Cl)ccc4Cl)cc3)n2)n[nH]1 [Compound 163] | 100 to 1000 nM | 50 to 1000 nM |  |  |
| Cc1cc(Nc2cc(N3CCC3)nc(Sc3ccc(NC(=O)c4ccccc4C)cc3)n2)n[nH]1 [Compound 31] | 100 to 1000 nM |  | 50 to 1000 nM |  |
| Cc1cc(Nc2cc(N3CCC3)nc(Sc3ccc(NC(=O)c4c(Cl)cccc4Cl)cc3)n2)n[nH]1 [Compound 46] | ≤ 100 nM |  | 50 to 1000 nM |  |
| COc1ccccc1C(=O)Nc1ccc(Sc2nc(Nc3cc(C)[nH]n3)cc(N3CCC3)n2)cc1 [Compound 32] | 100 to 1000 nM |  | 50 to 1000 nM |  |
| Cc1cc(Nc2cc(N3CCC3)nc(Sc3ccc(NC(=O)c4cccc(Cl)c4)cc3)n2)n[nH]1 [Compound 53] | 100 to 1000 nM | 50 to 1000 nM |  |  |

— patent US8637511B2, “Aminopyrimidines useful as kinase inhibitors” (Vertex Pharmaceuticals Incorporated, priority 2005, dated 2014)
